Where a name gives a salt, the structure may show the parent alone.
Tests used:
Humanthrombozyten = assay: Inhibition of the binding of ³H-BIBU 52 to human platelets (fibrinogen binding test); conditions: displacement of ³H-BIBU 52 (5 nM) from human platelets in plasma, 20 min at room temperature; read-out: Fibrinogen-Bindungstest IC₅₀
Excerpt: 1. Hemmung der Bindung von ³H-BIBU 52 an Humanthrombozyten:
Eine Suspension von Humanthrombozyten in Plasma wird mit ³H-BIBU 52 [= (3S,5S)-5-[(4'-Amidino-4-biphenylyl)oxymethyl]-3-[(carboxyl)methyl]-2-pyrrolidinon[3-³H-4-biphenylyl]], das den literaturbekannten Liganden ¹²⁵J-Fibrinogen ersetzt, (siehe deutsche Patentanmeldung P 42 14 245.8 der gleichen Anmelderin vom 30. 04. 1992, internes Zeichen: Case 5/1093-FL) und verschiedenen Konzentrationen der zu testenden Substanz inkubiert. Der freie und gebundene Ligand wird durch Zentrifugation getrennt und durch Szintillationszählung quantitativ bestimmt. Aus den Meßwerten wird die Hemmung der ³H-BIBU 52-Bindung durch die Testsubstanz bestimmt.
Hierzu wird aus einer Antikubitalvene Spenderblut entnommen und mit Trinatriumzitrat antikoaguliert (Endkonzentration 13 mM). Das Blut wird 10 Minuten bei 170 x g zentrifugiert und das überstehende plättchenreiche Plasma (PRP) abgenommen. Das Restblut wird zur Gewinnung von Plasma noch einmal scharf abzentrifugiert. Das PRP wird mit autologem Plasma 1:10 verdünnt. 750 ml werden mit 50 ml physiologischer Kochsalzlösung, 100 ml Testsubstanzlösung, 50 ml ¹⁴C-Sucrose (3.700 Bq) und 50 ml ³H-BIBU 52 (Endkonzentration: 5 nM) bei Raumtemperatur 20 Minuten inkubiert. Zur Messung der unspezifischen Bindung wird anstelle der Testsubstanz 5 ml BIBU 52 (Endkonzentration: […]) eingesetzt. Die Proben werden 20 Sekunden bei 10000 x g zentrifugiert und der Überstand abgezogen. 100 ml hiervon werden zur Bestimmung des freien Liganden gemessen. Das Pellet wird in 500 ml 0,2N NaOH gelöst, 450 ml werden mit 2 ml Szintillator und 25 ml 5N HCl versetzt und gemessen. Das im Pellet noch verbliebene Restplasma wird aus dem ¹⁴C-Gehalt bestimmt, der gebundene Ligand aus der ³H-Messung. Nach Abzug der unspezifischen Bindung wird die Pelletaktivität gegen die Konzentration der Testsubstanz aufgetragen und die Konzentration für eine 50%ige Hemmung der Bindung ermittelt.

Thrombozytenaggregation = assay: Collagen-induced platelet aggregation in platelet-rich plasma (method of Born and Cross); format: cell-based; conditions: human platelet-rich plasma, 10 min preincubation at 37°C, 50% change of optical density, read-out: Hemmung der Plättchenaggregation EC₅₀
Excerpt: 2. Antithrombotische Wirkung
Die Thrombozytenaggregation wird nach der Methode von Born und Cross (J. Physiol. 170, 397 (1964)) in plättchenreichem Plasma gesunder Versuchspersonen gemessen. Zur Gerinnungshemmung wird das Blut mit Natriumcitrat 3,14 % im Volumenverhältnis 1:10 versetzt.
Collagen-induzierte Aggregation
Der Verlauf der Abnahme der optischen Dichte der Plättchensuspension wird nach Zugabe der aggregationsauslösenden Substanz photometrisch gemessen und registriert. Aus dem Neigungswinkel der Dichtekurve wird auf die Aggregationsgeschwindigkeit geschlossen. Der Punkt der Kurve, bei dem die größte Lichtdurchlässigkeit vorliegt, dient zur Berechnung der "optical density".
Die Collagen-Menge wird möglichst gering gewählt, aber doch so, daß sich eine irreversibel verlaufende Reaktionskurve ergibt. Verwendet wird das handelsübliche Collagen der Firma Hormonchemie, München.
Vor der Collagen-Zugabe wird das Plasma jeweils 10 Minuten mit der Substanz bei 37°C inkubiert.
Aus den erhaltenen Meßzahlen wird graphisch eine EC₅₀ bestimmt, die sich auf eine 50%ige Änderung der "optical density" im Sinne einer Aggregationshemmung bezieht.

Maus = assay: Tolerability after intravenous administration to the mouse; format: in vivo; conditions: 30 mg/kg intravenous, 3 animals tested

Structure (SMILES) | IC50 (Humanthrombozyten) [nM] | EC50 (Thrombozytenaggregation) [nM] | Mortality (verstorbene Tiere) (Maus)
O=C(O)CC1CCN(C(=O)c2ccc(CCC34CCN(CC3)CC4)cc2)CC1 [1(1), 4-Carboxymethyl-1-[4-[2-(4-chinuclidinyl)-ethyl]-benzoyl]-piperidin] | 360 | 610 | 
O=C(N[C@H]1CC[C@H](C(=O)O)CC1)c1ccc(CCC23CCN(CC2)CC3)cc1 [1(2), trans-4-[4-[2-(4-Chinuclidinyl)-ethyl]-benzoylamino]-cyclohexancarbonsäure] |  |  | keines der 3 getesteten Tiere verstarb
CCCCS(=O)(=O)NC1(C(=O)O)CCC(NC(=O)N2CCC(OCC3CCNCC3)CC2)CC1 (stereo not drawn) [1(7), N-[1-Carboxy-cis-4-[[4-[(4-piperidinyl)-methyloxy]-1-piperidinyl]-carbonylamino]-cyclohexyl]-n-butansulfonamid] | 1500 | 3100 | 
NC1(C(=O)O)CCC(NC(=O)N2CCC(OCC3CCNCC3)CC2)CC1 (stereo not drawn) [1(9), 1-Carboxy-cis-4-[[4-[(4-piperidinyl)-methyloxy]-1-piperidinyl]-carbonylamino]-cyclohexylamin] | 130 | 1300 | 
O=C(O)CN(CCNC(=O)N1CCC(OCC2CCNCC2)CC1)CC(=O)O [1(14), N-Carboxymethyl-N-[2-[[4-[(4-piperidinyl)-methyloxy]-1-piperidinyl]-carbonylamino]-ethyl]-glycin] | 6900 | 23000 | 
O=C(NC1CCNCC1)c1ccc(C(=O)N[C@H]2CC[C@H](C(=O)O)CC2)cc1 [3(4), trans-4-[4-[(4-Piperidinyl)-aminocarbonyl]-benzoylamino]-cyclohexancarbonsäure-hydrochlorid] | 2100 | 2060 | 
O=C(O)CCC1CCN(C(=O)c2ccc(NCC3CCNCC3)cc2)CC1 [3(7), 4-(2-Carboxy-ethyl)-1-[4-[[(4-piperidinyl)-methyl]-amino]-benzoyl]-piperidin-hydrochlorid] | 49000 | 45000 | 
O=C(O)CC1CCN(C(=O)c2ccc(NCC3CCNCC3)cc2)CC1 [3(8), 4-Carboxymethyl-1-[4-[[(4-piperidinyl)-methyl]-amino]-benzoyl]-piperidin-hydrochlorid] | 6400 | 5800 | 
O=C(N[C@H]1CC[C@H](C(=O)O)CC1)c1ccc(NC(=O)C2CCNCC2)cc1 [3(9), trans-4-[4-[(4-Piperidinyl)-carbonylamino]-benzoylamino]-cyclohexancarbonsäure-hydrochlorid] | 2300 | 3200 | 
O=C(N[C@H]1CC[C@H](C(=O)O)CC1)c1cccc(OCC2CCNCC2)c1 [3(15), trans-4-[3-[(4-Piperidinyl)-methyloxy]-benzoylamino]-cyclohexancarbonsäure-hydrochlorid] | 630 | 1200 | 
O=C(N[C@H]1CC[C@H](C(=O)O)CC1)N1CCC(COC2CCNCC2)CC1 [3(16), trans-4-[[4-[(4-Piperidinyl)-oxymethyl]-1-piperidinyl]-carbonylamino]-cyclohexancarbonsäure-hydrochlorid] | 160 | 270 | 
O=C(N[C@H]1CC[C@H](C(=O)O)CC1)N1CCC(OCC2CCNCC2)CC1 [3(17), trans-4-[[4-[(4-Piperidinyl)-methyloxy]-1-piperidinyl]-carbonylamino]-cyclohexancarbonsäure] | 91 | 300 | keines der 3 getesteten Tiere verstarb
O=C(N[C@H]1CC[C@H](C(=O)O)CC1)c1ccc(OCC2CCNCC2)cc1 [3(23), trans-4-[4-[(4-Piperidinyl)-methyloxy]-benzoylamino]-cyclohexancarbonsäure-hydrochlorid] | 190 | 270 | 
NCC1CCc2cc(C(=O)N[C@H]3CC[C@H](CCC(=O)O)CC3)ccc2C1 (stereo partly drawn) [3(24), 3-[trans-4-[(2-Aminomethyl-1,2,3,4-tetrahydro-6-naphthyl)-carbonylamino]-cyclohexyl]-propionsäure-hydrochlorid] | 1500 | 4410 | 
O=C(N[C@H]1CC[C@H](C(=O)O)CC1)c1ccc(CCc2ccncc2)cc1 [3(30), trans-4-[4-[2-(4-Pyridyl)-ethyl]-benzoylamino]-cyclohexan-carbonsäure-hydrochlorid] | 1200 | 1070 | 
NCCc1ccc(C(=O)N[C@H]2CC[C@H](CCC(=O)O)CC2)cc1 [3(32), trans-1-[4-(2-Amino-ethyl)-benzoylamino]-4-(2-carboxyethyl)-cyclohexan-hydrochlorid] |  | 1200 | 
COC(=O)[C@H]1CC[C@H](NC(=O)N2CCC(OCC3CCNCC3)CC2)CC1 [4(23), trans-4-[[4-[(4-Piperidinyl)-methyloxy]-1-piperidinyl]-carbonylamino]-cyclohexancarbonsäure-methylester-hydrochlorid] | 180 | 370 | keines der 3 getesteten Tiere verstarb
NCCOc1ccc(C(=O)N[C@H]2CC[C@H](CCC(=O)O)CC2)cc1 [4(32)] | 130 | 970 | 
NCCOc1ccc(C(=O)N[C@H]2CC[C@H](OCC(=O)O)CC2)cc1 [4(34)] | 840 | 3370 | 
O=C(N[C@H]1CC[C@H](C(=O)O)CC1)c1cccc(CCC23CCN(CC2)CC3)c1 [Beispiel 1, trans-4-[3-[2-(4-Chinuclidinyl)-ethyl]-benzoylamino]-cyclohexancarbonsäure] | 550 | 1700 | 
O=C(N[C@H]1CC[C@H](C(=O)O)CC1)c1ccc(OCC23CCN(CC2)CC3)cc1 [Beispiel 3, trans-4-[4-[(4-Chinuclidinyl)-methyloxy]-benzoylamino]-cyclohexancarbonsäure-hydrochlorid] | 85 | 360 | keines der 3 getesteten Tiere verstarb

From EP0638553A1, “Carboxylic acid amides having a terminal carboxylic acid group as aggregation inhibiting drugs” (Dr. Karl Thomae GmbH, priority 1993, dated 1995)
